Here are results for four molecules from patent US20110262457A1, “MODULATION OF THE IMMUNE RESPONSE” (priority 2008, published 2011).

“Also recorded” adds a separate entry of the source.

One test concerns CD4+Foxp3:GFP- T cells. Briefly: Conversion of CD4+Foxp3:GFP- T cells into Treg with antibodies to CD3 and CD28 and TGFb1. The test is classed as cell-based. To be noted: in vitro, anti-CD3/CD28, TGFβ1, FIGS. 1A, 1B. The text has this: FIG. 1A is a set of three FACS plots showing conversion of CD4^+Foxp3:GFP^− T cells into CD4^+Foxp3:GFP^+ Treg by stimulation with antibodies to CD3 and CD28 in the presence of TGFb1 with or without FICZ; FIG. 1b; FIG. 1B presents the data in bar graph format. FIG. 1C is a bar graph showing AHR expression in naïve T cells differentiated in vitro into TH1, TH2 or TH17 cells for four days (mean+s.d. of triplicates normalized to actin expression). FIG. 1D is a bar graph showing AHR expression in naïve T cells differentiated in vitro into TH17 for four days with the indicated cytokines (mean+s.d. of triplicates normalized to actin expression). FIG. 1E is a bar graph showing RORγt expression in naïve T cells differentiated into TH17 for four days with TGFβ1 and IL-6 alone or in combination with FICZ (mean+s.d. of triplicates normalized to actin expression). FIG. 1F is a set of nine FACS plots of frequency of IL-17^+ T cells differentiated with TGFβ1 and IL-6 alone or in combination with IL-23 and/or FICZ for four days. FIG. 1G is a bar graph showing IL-17 and FIG. 1H is a pair of bar graphs showing IL-21 (left) and IL-22 (right) levels in supernatants of cultures prepared as in 1E, as measured by ELISA after 4 days of differentiation into. […]

Another test has as its system Hep3b cells. Briefly: In vivo model of hepatocellular carcinoma (Hep3b cells in athymic nude mouse reconstituted with splenocytes). As to the method: FIGS. 3A and 3B are bar graphs illustrating AFP levels in HCC tumor models treated with FICZ (3A) or FICZ plus HBSAg (3B).
In this example the effects of FICZ administration on Hepatocellular Carcinoma were evaluated in a mouse model of cancer.
The present study used athymic nude mouse (N=7), a type of laboratory mouse that is hairless, lacks a normal thymus gland, and has a defective immune system because of a genetic mutation.
100 ug of frozen FICZ (BIOMOL International, Plymouth Meeting, Pa.) was dissolved in 5 ml of CREMOPHOR™ (polyethoxylated castor oil):ethanol in phosphate buffered saline (PBS), to produce a working solution of 20 ug/ml. 250 ul (5 ug total) of HBs antigen was injected in Treatment Group C. The experiments were carried out as follows:
Tumor sizes were measured in three dimensions using Vernier calipers and tumor volume was computed assuming a spherical geometry with radius equal to one-half the average tumor dimension: TV (mm^3)=d^2×D/2. Tumors were measured two times a week and mice were monitored routinely to evaluate the effects of treatment.
In addition, serum AFP levels were monitored; AFP is an accepted tumor marker of HCC.

Test [1] has as its system EAE mice. Nature of the test: EAE in C57BL/6 mice treated weekly with AHR-ligand nanoparticles. It counts as in vivo. To be noted: weekly from day 0, 45 femtomoles of nanoparticles, FIG. 7. As to the method: FIG. 7 is a line graph showing modulation of EAE by AHR-ligand nanoparticles. EAE was induced in B6 mice (n=5), the mice were treated with nanoparticles weekly starting from day 0, and the animals were followed for signs of EAE.
To investigate the in vivo functionality of AHR-ligand loaded nanoparticles EAE was induced on naïve C57BL/6 mice and treated them, starting at day 0, weekly with 45 femtomoles of nanoparticles.

A further test has as its system naive T cells. Briefly: In vitro TH17 differentiation of naive T cells with TGFβ1 and IL-6 (with or without IL-23). It counts as cell-based. The text has this: FIG. 1A is a set of three FACS plots showing conversion of CD4^+Foxp3:GFP^− T cells into CD4^+Foxp3:GFP^+ Treg by stimulation with antibodies to CD3 and CD28 in the presence of TGFb1 with or without FICZ; FIG. 1b; FIG. 1B presents the data in bar graph format. FIG. 1C is a bar graph showing AHR expression in naïve T cells differentiated in vitro into TH1, TH2 or TH17 cells for four days (mean+s.d. of triplicates normalized to actin expression). FIG. 1D is a bar graph showing AHR expression in naïve T cells differentiated in vitro into TH17 for four days with the indicated cytokines (mean+s.d. of triplicates normalized to actin expression). FIG. 1E is a bar graph showing RORγt expression in naïve T cells differentiated into TH17 for four days with TGFβ1 and IL-6 alone or in combination with FICZ (mean+s.d. of triplicates normalized to actin expression). FIG. 1F is a set of nine FACS plots of frequency of IL-17^+ T cells differentiated with TGFβ1 and IL-6 alone or in combination with IL-23 and/or FICZ for four days. FIG. 1G is a bar graph showing IL-17 and FIG. 1H is a pair of bar graphs showing IL-21 (left) and IL-22 (right) levels in supernatants of cultures prepared as in 1E, as measured by ELISA after 4 days of differentiation into.
Next, the effect of AHR activation by FICZ on in vitro TH17 differentiation was investigated using the TH17 transcription factor RORyt as a marker of TH17 differentiation.

Test [2] concerns EAE mice. Nature of the test: EAE model (MOG35-55 peptide in CFA), FICZ treatment. It counts as in vivo. On the procedure: FIG. 2A is a line graph showing development of EAE on FICZ^− or control-treated mice (mean EAE score+s.e.m.)
FIG. 2B is a pair of bar graphs showing cytokine secretion (pg/ml) triggered by MOG35-55 in splenocytes taken from FICZ or control-treated mice; left, IFNgamma, right, IL-17.
FIGS. 2C-2E are each pairs of FACS plots showing the frequency of IFNγ, (2C), IL-17 (2D) or Foxp3 (2E) in splenocytes from FICZ or control-treated mice.
The effects of FICZ were evaluated in vivo using the EAE model described in PCT International Patent Application NO. PCT/US2008/083016, and U.S. Provisional Patent Application Ser. No. 60/989,309, filed on Nov. 20, 2007.
Mice were treated with PBS (control) or […], immunized with MOG35-55 peptide in CFA and monitored for EAE development.

In the next test the test system is zebrafish embryos. Briefly: zFoxp3 and IL-17 expression in developing zebrafish embryos. The conditions noted are these: treatment of developing zebrafish embryos. It counts as in vivo, zebrafish (Danio rerio). The text has this: FIG. 4D is a bar graph showing the effect of a specific morpholino antisense oligonucleotide against Foxp3 on IL-17 expression in zebrafish.
Zebrafish eggs were collected within 1 hr of spawning, and purified plasmids or morpholino antisense oligonucleotides were microinjected with a fine glass needle connected to an automatic injector. A morpholino oligonucleotide designed to block the translation of zFoxp3 (5′-[…]-3′) and a 5 bases mismatch control oligonucleotide (5′-GTcTTCgAGTAcCATTAAcAAGgAT-3′) were designed and synthesized by Gene Tools (Philomath, Oreg.). Each morpholino nucleotide was injected into the yolk of embryos at one to four cell stages.

A further test has as its target T1, AHR (Homo sapiens, UniProt P35869).
T1 construct: endogenous in cells
T1 sequence (P35869 11-848): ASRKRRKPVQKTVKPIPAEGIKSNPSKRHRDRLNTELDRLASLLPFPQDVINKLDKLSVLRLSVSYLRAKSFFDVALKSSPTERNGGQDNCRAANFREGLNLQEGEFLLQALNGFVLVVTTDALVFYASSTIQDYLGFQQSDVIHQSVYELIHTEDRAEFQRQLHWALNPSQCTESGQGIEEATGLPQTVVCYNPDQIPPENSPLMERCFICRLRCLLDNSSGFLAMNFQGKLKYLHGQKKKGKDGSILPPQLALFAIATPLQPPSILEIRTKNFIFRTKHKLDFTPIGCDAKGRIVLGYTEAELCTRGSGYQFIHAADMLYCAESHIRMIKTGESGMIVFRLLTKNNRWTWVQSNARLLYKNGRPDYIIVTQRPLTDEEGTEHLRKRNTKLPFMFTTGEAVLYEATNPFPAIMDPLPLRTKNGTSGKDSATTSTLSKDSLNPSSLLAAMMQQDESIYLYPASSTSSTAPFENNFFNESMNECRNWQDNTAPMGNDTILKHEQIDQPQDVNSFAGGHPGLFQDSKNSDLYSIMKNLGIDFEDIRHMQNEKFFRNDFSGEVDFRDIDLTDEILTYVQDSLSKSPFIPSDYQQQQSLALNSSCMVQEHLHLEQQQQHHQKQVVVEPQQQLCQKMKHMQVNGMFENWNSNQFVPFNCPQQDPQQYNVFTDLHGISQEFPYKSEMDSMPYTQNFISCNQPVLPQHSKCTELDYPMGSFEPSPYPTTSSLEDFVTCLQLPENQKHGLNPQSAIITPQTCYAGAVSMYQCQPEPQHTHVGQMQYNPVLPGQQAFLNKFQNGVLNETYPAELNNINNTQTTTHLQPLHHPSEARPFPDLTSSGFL
Nature of the test: AHR reporter luciferase construct in HEK 293 cells (dual luciferase assay). It counts as cell-based. To be noted: different concentrations, normalised to Tk-Renilla, FIG. 8. As to the method:
FIG. 8 is a bar graph showing fluorescence in 293 cells transfected with an AHR reporter luciferase construct and a TK-Renilla Luciferase construct for normalization purposes. The cells were incubated with different concentrations of the AHR ligand TCDD and activation of the AHR reporter was followed by monitoring fluorescence from the luciferase.
A construct coding for Foxp3 fused to Renilla luciferase (Ren) was created to provide a simple assay to identify compounds that increase expression of AHR (and thus increase luciferase expression and fluorescence as compared to a control) or that decrease expression of AHR (and thus decrease luciferase expression and fluorescence as compared to a control). HEK 293 cells were transfected as described (Bettelli et al., Proc Natl Acad Sci USA 102, 5138-5143 (2005)) with the AHR reporter luciferase construct and a TK-Renilla Luciferase construct for normalization purposes.
The cells were incubated with different concentrations of the AHR ligand
TCDD and activation of the AHR reporter was assayed using the dual luciferase assay kit ([…].). Tk-Renilla was used for standardization.

In another test the test system is T cells. Briefly: Th17 differentiation of T cells with antibodies to CD3 and CD28, TGF-beta and IL-21; IL-17 by real time PCR. It counts as cell-based. The conditions noted are these: 100 nM, compared with FICZ, FIG. 9. On the procedure:
FIG. 9 is a bar graph T cells differentiation into Th17 cells by in vitro activation with antibodies to CD3 and CD28 in the presence of TGF-beta and IL-21, in the presence of or not of showing beta-naphthoflavone (bNF) or FICZ (100 nM). IL-17 production was measured by real time PCR.
Briefly, T cells were differentiated into Th17 cells by in vitro activation with antibodies to CD3 and CD28 in the presence of TGF-beta and IL-21 as described (Nature 2008; 454(7202):350-2), in the presence or not of bNF or FICZ (100 nM). IL-17 production was measured by real time PCR.
(In general: In qPCR the cycle at which signal appears reflects the starting amount.)

Take `O=Cc1c2c(cc3c1=Nc1ccccc1-3)=Nc1ccccc1-2` [FICZ, 6-formylindolo[3,2-b]carbazole]: in the test with CD4+Foxp3:GFP- T cells, the “differentiation of Treg triggered by TGFβ1” value was “interfered with the differentiation of Treg”. The “tumor growth (tumor volume)” value with Hep3b cells (IP twice a week, caliper measurement) is “suppressed tumor growth”. Further, the “tumor growth as measured by serum AFP levels” value with Hep3b cells (seven and 14 days after treatment initiation, FIGS. 3A, 3B) was “significantly suppresses tumor growth”. For the same molecule, the EAE development result in the test on EAE mice [1] is “worsened the disease”; in the test with EAE mice [2] (mice, single dose of 1 μg/mouse, FIG. 2A), “significant worsening of EAE; also recorded: worsens EAE”. Further, in the test on naive T cells (FICZ alone, four days, FIG. 1E), the “expression levels of the TH17 transcription factor RORγt” value is listed as “did not significantly upregulate”. Further, the “TH17 differentiation in vitro (IL-17+ T cells, IL-17, IL-21, IL-22 levels)” value with naive T cells (with TGFβ1, IL-6 and IL-23, four days, FIGS. 1F-1H) is “synergized with TGFβ1, IL-6 and IL-23 to drive TH17 differentiation”. In addition, the “Mean day of onset (Mean ± SD)” value with EAE mice [2] (EAE mice) is 13.3 ± 1.5. In addition, in the test with EAE mice [2] (EAE mice), the “Mean maximum score (mean ± SD)” value came to 2.7 ± 1.8. Further, in the test on EAE mice [2] (splenocytes from treated EAE mice, FIG. 2E), the “frequency of CD4+Foxp3+ Treg” value was “decrease in the frequency”. In addition, in the test on EAE mice [2] (splenocytes from treated EAE mice, FIGS. 2C, 2D), the “frequencies of IL-17+ CD4+ and CD4+IFNγ+ T cells” value is listed as “increased frequencies”. In addition, the “secretion of IL-17 and IFNγ” value in the test with EAE mice [2] (splenocytes from treated mice, in vitro stimulation with MOG35-55, FIG. 2B) is “increased secretion”.

With `Clc1cc2c(cc1Cl)Oc1cc(Cl)c(Cl)cc1O2` [TCDD, 2,3,7,8-tetrachlorodibenzo-p-dioxin], in the test on zebrafish embryos, the IL-17 expression entry is on record as “down regulation” and the zFoxp3 expression entry was “dose-dependent increase”. Moreover, the “expression of the AHR reporter” value on AHR is reported as “dose-dependent increases”. For the same molecule, the EAE development result with EAE mice [1] is listed as “complete suppression of EAE”.

For `O=c1cc(-c2ccccc2)oc2ccc3ccccc3c12` [bNF, beta-naphthoflavone], in the test with T cells, the “T cell differentiation into TH17 cells (IL-17 production by real time PCR)” value is recorded as “same effect”.

Take `Oc1ccc(C=Cc2cc(O)cc(O)c2)cc1` [resveratrol]: in the test on naive T cells (AHR antagonist added, FIG. 1I), the “effect on FICZ synergism in TH17 differentiation” value is listed as “blocked”.
